Experimental data from article PMC5770468, “Cardiac glycoside/aglycones inhibit HIV-1 gene expression by a mechanism requiring MEK1/2-ERK1/2 signaling” (Scientific Reports, 2018).
Like-named read-outs stand apart in the source and are kept apart here.

Tests used:
[1] = test system: HIV-1 (Gag) gene expression; assay: HIV-1 (Gag) gene expression in HeLa rtTA-HIV-ΔMls cells, p24CA ELISA dose response; format: cell-based, HIV-1 (LAI); settings: for IC50: read-out: IC50 (nM) HeLa rtTA-HIV-ΔMls
Procedure: Drug/compounds were tested for effects on HIV-1 gene expression using inducible Tet-ON HIV-1 cell lines [HeLa rtTA-HIV-ΔMls or rtTA-HIV(Gag-GFP)] containing a HIV-1 (LAI) provirus activatable by Dox or tetracycline transactivator (tTA)[69]. The rtTA-HIV-ΔMls provirus was modified and used as previously reported[9]–[11],[70]. The rtTA-HIV(Gag-GFP) provirus was generated by deletion of the PR and RT coding regions within pol and insertion of GFP to the 3′ of gag, creating GFP fused to the C-terminal of Gag. After 4 h of drug/compound treatment, HIV-1 gene expression was activated with Dox (2 μg/mL) or tTA (described below). Equal concentrations of DMSO were present in each experiment. After ~20 h, cells and media were harvested to monitor the effects of drug/compound treatments as described below. HIV-1 gene expression was quantified via p24^CA ELISA or monitoring Gag-GFP fluorescence in cells as described below. In parallel, cell viability of treatments were assessed by XTT assay (Sigma-Aldrich, #TOX2).
Drug/compounds were purchased from Sigma (Digoxin, #D6003; Digitoxin, #D5878; Digoxigenin, #D9026; Digitoxigenin, #D9404; Ouabain, #O3125; Bufalin, #S961175; Cinobufagin, #C1272; and Anisomycin, #A9789) and derivatives of convallatoxin were synthesized from C. Lingwood’s lab of the Hospital for Sick Children (convallatoxin, peruvoside, RIDK-34, -36, -20, -21, -27, and -28). […] Recombinant human EGF was from Invitrogen (#PHG0314). Chemical structures were drawn in ChemSketch (ACD/Labs).
To monitor HIV-1 gene expression or replication, Gag release into cell culture supernatants were assayed by ELISA using a p24^CA antigen capture assay kit (AIDS & Cancer Virus Program, NCI-Frederick, Frederick, MD USA). Media harvested from HIV clinical isolates were diluted ~10 fold (or as necessary) prior to performing this assay. For analysis of HIV-1 and SR protein expression (and phosphorylation states with calf intestinal alkaline phosphatase treatments), cells were lysed and analyzed by western blot as previously outlined. Phosphatase inhibitors (e.g. 10 mM sodium fluoride, 2 mM sodium orthovanadate) were added to solutions requiring phospho protein analyses. An anti-chicken NKA antibody (α6F, #a6F–c, Developmental Studies Hybridoma Bank, The University of Iowa, contributed by Douglas M. Fambrough, The Johns Hopkins University) was used as specified to detect NKA α1- and β1-subunits across species. […] Activation of MAPKs was determined by western blot quantitation and calculation of phospho/total protein levels. […] Images were exported as TIF files for assembly, rotation, and equal brightness/contrast adjustments in ImageJ or Microsoft Powerpoint. Some lanes were cropped and rearranged from the same blot/gel as indicated. In representative gel/blot sets, samples were electrophoresed from the same experiment as controls, resolved simultaneously on identically cast gel(s), transferred to same PVDF (by either wet electrophoretic or by Bio-Rad Trans-Blot® Turbo Transfer System), and detected at same time. Marked locations of molecular weight (MW) standards are shown on the left as a reference. […] SUnSET analysis of total cellular protein synthesis. HeLa rtTA-HIV-ΔMls cells were cultured in the presence/absence of compound and pathway inhibitor (if any) and Dox induced for ~24 h as already described, then treated with puromycin (10 μg/mL, Sigma-Aldrich, #P8833) for 30 min to label nascent proteins prior to harvest. As control, 10 µM of cycloheximide (Sigma-Aldrich, #C4849) was added to some cells prior to puromycin treatment. Cells were subsequently washed, whole cell lysates prepared, and proteins quantified by western blot using an anti-puromycin antibody (EMD Millipore, #anti-12D10) as described above. Transfection of plasmid DNA into cells.

HeLa rtTA-HIV-ΔMls cells = assay: In vitro therapeutic index (CC20/IC50) in HeLa rtTA-HIV-ΔMls cells; format: cell-based, human
Excerpt: Without median toxic dose (TD50) and half-maximal effective concentration (EC50) data available to calculate TIs (in vivo) from HIV patients treated with CSs, we determined the following TIs for each cell type treated with a CS (summarized in Supplementary Table S1): in vitro TIs from HeLa rtTA-HIV-ΔMls cells using CC20/IC50 (instead of CC50/IC50), in vitro TIs from 24ST1NLESG cells using CC50/IC50, and ex vivo TIs from HIV-infected PBMCs using CC50/IC50 (at day 14 of culture approximated from available cell viability trends for CC50s of Supplementary Fig. S13 and inferred near maximal IC50s).
Supplementary Table S1. Comparison of the in vitro (IVTI) and ex vivo therapeutic indices (EVTIs) of CSs and their impact on the expression of essential HIV-1 proteins.
Notes: data for CC20, CC50, and IC50s for each drug/compound were estimated from dose response curves in Figures 1-2, Supplementary Table S1, Supplementary Figures S2, S5, and S13, and Wong et al.
">" means the estimate has not been accurately determined but is greater than the highest concentration […]
"( )" indicates preliminary data that was not shown. aCC20 instead of CC50 was estimated from dose response curves and used for calculation of IVTIs. bCells were treated at ~IC90of a CS.
(1 picture or pasted object on this page, not shown here)

HIV-1 Gag-GFP expression = assay: Recovery of HIV-1 Gag-GFP expression by pathway inhibitors in the presence of CSs, HeLa rtTA-HIV(Gag-GFP) cells; format: cell-based; settings: 12 μM U0126; 5.5 μM Selumetinib; 10 μM LY294002; 5 µM KB-R7943; CSs at ~IC80
Procedure: Figure 5 Effect of modulating NKA expression, [Ca^2+]i, and PI3K-AKT on HIV-1 gene expression. Depletion of the NKA perturbs HIV-1 RNA processing (n ≥ 3, mean, s.e.m.). HeLa rtTA-HIV(Gag-GFP) cells were transduced with two shRNAs (E6/E10) to knockdown expression of the NKA α1 subunit and their effect on HIV-1 gene expression analyzed. After positive selection of cells with puromycin for 24–48 h, HIV-1 expression was Dox induced for 20 h, and cells harvested for analyses. Total mRNA (and protein) was isolated from cells, reverse transcribed, and analyzed by qRT-PCR and data normalized to β-actin (a,c). Results are shown relative to Stuffer (+). (a) Expression levels of NKA α1 mRNAs assayed by qRT-PCR. (b) HIV-1 Gag expression assayed by p24^CA ELISA of cell lysates (40 μg). (c) Accumulation of HIV-1 US (black), SS (white), and MS (gray) mRNAs quantified by qRT-PCR. (d–g) CSs suppress HIV-1 gene expression independent of intracellular Ca^2+ flux/signaling and PI3K-AKT activation. HeLa rtTA-HIV(Gag-GFP) cells were pre-treated with either a chelator of [Ca^2+]i (5 µM BAPTA-AM, [Ca2+]ii), inhibitors of NCX Ca^2+-entry (5 µM KB-R7943, NCXi) or PI3K (10 μM LY294002, PI3Ki), or untreated (DMSO, no pathway inhibitor) for ~2 h prior to treatment with ~IC80s of CSs or DMSO for 4 h, and Dox induced for ~20 h. The pathway used by a CS to inhibit HIV-1 expression was determined by monitoring for recovery of Gag-GFP expression by measuring GFP fluorescence in cell lysates (and initially by plate scans of live/fixed cells, Supplementary Fig. S7a and S8c). (d) Levels of [Ca^2+]i measured by Fura Red AM™ (n ≥ 4, mean, s.e.m.). (e–f) Quantification of Gag-GFP expression by reducing SDS-PAGE in lysates (35 μg) of cells which were pre-treated with/without KB-R7943 (n ≥ 3–4 mean, s.e.m.). […] (g) Graph quantitating Gag expression by p24^CA ELISA in lysates of cells (35 μg) that were pre-treated with/without LY294002 (n ≥ 3, mean, s.e.m.). Statistical comparisons in (a–g) were performed as illustrated (black/gray dashed lines) or described in Methods.
Figure 6 CSs control HIV-1 gene expression through intracellular signaling. HeLa rtTA-HIV(Gag-GFP) cells were pre-treated with/without pathway inhibitor overnight (~15 h) and treated with ~IC80s of CSs. […] Graphs quantifying the activation level (phospho/total protein) of each MAP/MAPK by western blot. […] The signaling pathway(s) used by a CS to inhibit HIV-1 expression was determined by detecting Gag-GFP fluorescence in cell lysates (~35 μg) by reducing SDS-PAGE after pre-treatment of cells with a MEK1/2 (12 μM U0126, white), p38α/β/β2 (15 μM SB203580/p38i, gray), or JNK1/2/3 (1.25 μM SP600125/JNKi, hatched) inhibitor (n ≥ 5–7, 4–8, and 3–7, resp., mean, s.e.m.). […]

[2] = Human immunodeficiency virus 1, HeLa
[3] = Human immunodeficiency virus 1, HeLa, read-out: IC90, HIV-1 (Gag) gene expression

CC(=O)O[C@H]1[C@H]2O[C@]23[C@@H]2CC[C@@H]4C[C@@H](O)CC[C@]4(C)[C@H]2CC[C@]3(C)[C@H]1c1ccc(=O)oc1 [Cinobufagin]
IC50 [1, 2]: 24 nM
IC90 [1, 3]: 40 nM
IC80 ([1]; Human immunodeficiency virus 1, HeLa, read-out: ~IC80 (approximate concentration used in experiments)): ~40 nM
IC90 ([1]; Human immunodeficiency virus 1, HeLa, read-out: ~IC90 (approximate concentration used in experiments)): ~40 nM
better anti-HIV-1 activity than digoxin ([1]; cell based assays (HeLa rtTA-HIV-ΔMls)): 1.9 fold
better in vitro TI than digoxin (HeLa rtTA-HIV-ΔMls cells): 2.3 fold

Cn1cnc2c(F)c(Nc3ccc(Br)cc3Cl)c(C(=O)NOCCO)cc21 [Selumetinib]
reversal of CS inhibition of HIV-1 Gag-GFP expression by pathway inhibitor pre-treatment (HIV-1 Gag-GFP expression): partially rescuing

CC1OC(OC2CC(O)C3(CO)C4C(O)CC5(C)C(C(=CC(=O)O)CO)CCC5(O)C4CCC3(O)C2)C(O)C(O)C1O (stereo not drawn) [RIDK-21]
anti-HIV-1 activity ([1]; HeLa rtTA-HIV-ΔMls cells): reduced/no anti-HIV-1 activity
IC50 ([1]; HIV-1 Gag expression, p24CA ELISA, 4 h drug then Dox ~20 h): > 100 nM

C[C@@H]1O[C@@H](O[C@H]2CC[C@]3(C=O)[C@H]4CC[C@]5(C)[C@@H](C6=CC(=O)OC6)CC[C@]5(O)[C@@H]4CC[C@]3(O)C2)[C@H](O)[C@H](O)[C@H]1O [Convallatoxin]
better anti-HIV-1 activity than digoxin [1]: 3.8 fold
IC50 ([1]; Human immunodeficiency virus 1, HeLa, HIV-1 Gag expression, p24CA ELISA, 4 h drug then Dox ~20 h): 12 nM
IC90 ([1]; Human immunodeficiency virus 1, HeLa rtTA-HIV-ΔMls cells, read-out: IC90, HIV-1 (Gag) gene expression): 24 nM
better in vitro TI than digoxin (HeLa rtTA-HIV-ΔMls cells): 6.8 fold

O=c1cc(N2CCOCC2)oc2c(-c3ccccc3)cccc12 [LY294002]
reversal of CS inhibition of HIV-1 Gag-GFP expression by pathway inhibitor pre-treatment (HIV-1 Gag-GFP expression): did not reverse

N#CC(=C(/N)Sc1ccccc1N)/C(C#N)=C(/N)Sc1ccccc1N [U0126]
reversal of CS inhibition of HIV-1 Gag-GFP expression by pathway inhibitor pre-treatment (HIV-1 Gag-GFP expression): partially restored

CO[C@H]1[C@H](O)[C@H](O[C@H]2CC[C@@]3(C=O)[C@H](CC[C@@H]4[C@@H]3CC[C@]3(C)[C@@H](C5=CC(=O)OC5)CC[C@]43O)C2)O[C@@H](C)[C@@H]1O [Peruvoside]
reduced potency relative to convallatoxin ([1]; HeLa rtTA-HIV-ΔMls cells): 10 fold
IC50 [1, 2]: 80 nM
IC90 [1, 3]: 250 nM
